According to patent US20240132887A1, “PROTEIN ARGININE METHYLTRANSFERASE 9 INHIBITORS AND METHODS OF USE” (City of Hope, priority 2022, published 2024):

Tests used:
[1] = target: T1, PRMT9 (Homo sapiens, UniProt Q6P2P2); assay: In-house R493 methylation assay (PABPC1 peptide, SAM, dot blot with anti-R493me antibody); format: biochemical; conditions: for PRMT9 inhibition (catalytic activity screen of top 20 compounds): compounds 10 μM, PRMT9 pretreated 1 h
T1 construct: Myc; made in house
T1 sequence (Q6P2P2 1-845): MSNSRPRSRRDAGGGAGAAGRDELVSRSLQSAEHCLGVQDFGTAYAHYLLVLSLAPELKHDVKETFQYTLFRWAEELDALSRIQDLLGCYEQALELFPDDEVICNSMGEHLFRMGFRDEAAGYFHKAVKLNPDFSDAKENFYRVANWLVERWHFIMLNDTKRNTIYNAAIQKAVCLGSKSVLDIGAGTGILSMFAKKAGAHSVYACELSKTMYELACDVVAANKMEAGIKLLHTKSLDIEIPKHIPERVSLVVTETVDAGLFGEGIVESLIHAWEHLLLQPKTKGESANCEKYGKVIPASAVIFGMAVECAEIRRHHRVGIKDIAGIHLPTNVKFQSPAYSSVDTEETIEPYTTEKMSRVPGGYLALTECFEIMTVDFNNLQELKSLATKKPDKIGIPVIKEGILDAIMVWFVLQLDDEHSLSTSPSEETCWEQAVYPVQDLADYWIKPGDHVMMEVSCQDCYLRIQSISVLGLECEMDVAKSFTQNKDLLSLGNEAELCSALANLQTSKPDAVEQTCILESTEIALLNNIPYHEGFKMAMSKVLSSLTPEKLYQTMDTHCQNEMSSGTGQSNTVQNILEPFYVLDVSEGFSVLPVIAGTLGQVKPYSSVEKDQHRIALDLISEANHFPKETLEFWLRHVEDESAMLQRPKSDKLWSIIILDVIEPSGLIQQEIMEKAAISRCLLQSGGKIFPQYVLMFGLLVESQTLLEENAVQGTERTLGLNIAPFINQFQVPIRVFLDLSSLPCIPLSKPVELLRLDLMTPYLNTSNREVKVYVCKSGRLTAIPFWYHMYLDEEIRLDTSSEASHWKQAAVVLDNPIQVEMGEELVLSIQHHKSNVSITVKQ
Experimental: FIG. 10D: Catalytic activity screen of 9 selected compounds using an in-house R493 methylation assay. PRMT9 protein was pretreated 1 h with indicated compounds using in vitro methylation buffer and then incubated with synthesized unmodified PABPC1 peptides and SAM. […] Catalytic activity inhibition curves are calculated based on intensity of blots normalized to intensity at 37° C. (n=2). […] Data (FIG. 10I) are represented as mean±SD; P values (FIG. 10I) were determined by two-way ANOVA.
FIG. 11B: In-house R493 methylation assay. Synthesized unmodified PABPC1 peptides (aaG491-T507) were incubated 4 h with PRMT9 and SAM at 30° C. Catalytic activity was assessed by dot blot with anti-R493 specific antibody. PRMT9 or unmodified PABPC1 peptide alone served as negative controls, and synthesized R493me PABPC1 peptide as positive. FIG. 11C: Catalytic activity screen of top 20 compounds based on Molm13 viability assay with an in-house R493 methylation assay. PRMT9 protein was pretreated 1 h with indicated compounds (10 μM) and then incubated with synthesized unmodified PABPC1 peptides and SAM. Catalytic activity was assessed by dot blot with an anti-R493me specific antibody.

[2] = tested on: MNCs from AML BM specimens; assay: Primary AML MNC ex-vivo culture (CyTOF, flow cytometry); format: cell-based, human; conditions: αPD-1 alone or combined with LD2, 4 days ex-vivo
Experimental: Spanning-tree Progression Analysis of Density-normalized Events (SPADE) clustering was performed to identify cell groups corresponding to immunophenotypic subsets across normal hematopoiesis lineages. The frequency of CD3^+ T cells and CD34^+CD45^dim AML blast cells were noted. […] The relative number of alive CD34^+CD45^dim AML blast cells was assessed by flow cytometry. Data are presented as mean±SD from 3 independent experiments.
After 4 days treatment of vehicle (VEH) or LD2, survival of leukemic (CD34+CD33+) and immune subsets, including T cells (CD3+), B cells (CD19+/CD20+), and DCs (HLA-DR+CD34−CD33−CD3−CD19−CD20−CD14−CD56−), were accessed using Annexin-V staining.
LD2 treatment in total of 4 days ex-vivo culture (under the BM stroma cytokine condition).

Row | Compound | PRMT9 inhibition (catalytic activity screen of top 20 compounds) [1] | proportion / frequency of tumor cells [2] | PRMT9 inhibitory effects (PABP1 R493me levels) ([1]; different concentrations of each compound, comparison among the three NSC compounds)
1 | Cc1cccc2c1c1ccc3c(c1n2C)C(=O)C=CC3=O [NSC645330] | most potent PRMT9 inhibition | – | –
2 | Cc1ccc2c(c1)c1ccc3c(c1n2C)C(=O)C=CC3=O [NSC661221] | most potent PRMT9 inhibition | – | –
3 | αPD-1: anti-PD-1 (pembrolizumab, SIM0010, BioXCell) used in ex-vivo AML cultures | – | marginally decreased the proportion of tumor cells | –
4 | COc1ccc2c(c1)c1ccc3c(c1n2C)C(=O)C=CC3=O [NSC641396] | most potent PRMT9 inhibition | – | most potent PRMT9 inhibitory effects
